Values after ≈ are worked out from the molar mass of the structure shown.
Assays:
Format in all cases: cell-based, human
[1] = system: SW948 colon carcinoma cells; assay: induction of early apoptosis (annexin V-FITC / propidium iodide, FACS); conditions: SW948 in vitro, 4 days post-treatment (FIG. 10)
Excerpt: 14. […] Floating and adherent cells were collected 4 days post-treatment. The treatments are described in the legend for FIG. 8. The cells were stained with annexin V-FITC and propidium iodide, then analyzed by FACS using CellQuest software (Beckton-Dickenson, San Diego, Calif.). Data points are the average±SEM of a representative experiment done in triplicate.

SW948CPTH = assay: cell proliferation assay, cross-resistance to topoisomerase I and II inhibitors
Excerpt: (§1) Drug resistance to other topoisomerase I and II inhibitors was examined by determining the IC50 dose of each drug using a cell proliferation assay as shown in Table 3.

SW948 = assay: as above; conditions: Homo sapiens; SW948 parental; mean ± SD, 2-4 independent assays; read-out: Sensitivity expressed as IC50
Excerpt: as §1

SW948CPTH cells = assay: cell cycle analysis
SW948CPTL cells = assay: cell cycle analysis

CCc1c2c(nc3ccc(OC(=O)N4CCC(N5CCCCC5)CC4)cc13)-c1cc3c(c(=O)n1C2)COC(=O)[C@]3(O)CC [CPT-11, Irinotecan]
induction of apoptosis [1]: high level of apoptosis
IC50 (SW948CPTH; Homo sapiens, read-out: Sensitivity expressed as IC50): 43.7 ± 8.6 µg/mL (≈ 74.5 µM)
change in resistance of SW948CPTH cells compared to the parental cell line SW948 (SW948CPTH; IC50 by cell proliferation assay (Table 3)): increased resistance
IC50 (SW948): 3 ± 0.4 µg/mL (≈ 5.11 µM)
G0-G1(%) (SW948CPTH cells; CPT-11 1 μg/ml): 45.7 ± 6.2%
G2-M(%) (SW948CPTH cells; CPT-11 1 μg/ml): 8.3 ± 3.1%
S(%) (SW948CPTH cells; CPT-11 1 μg/ml): 46 ± 7.5%
G0-G1(%) (SW948CPTH cells; CPT-11 2 μg/ml): 44.6 ± 3.8%
G2-M(%) (SW948CPTH cells; CPT-11 2 μg/ml): 8.9 ± 1.9%
S(%) (SW948CPTH cells; CPT-11 2 μg/ml): 46.5 ± 3.9%
G0-G1(%) (SW948CPTH cells; CPT-11 5 μg/ml): 45.0 ± 3.0%
G2-M(%) (SW948CPTH cells; CPT-11 5 μg/ml): 12.2 ± 2.3%
S(%) (SW948CPTH cells; CPT-11 5 μg/ml): 42.8 ± 4.9%
change of cell cycle (SW948CPTH cells; similar amount of CPT-11): did not cause any change
G0-G1(%) (SW948CPTL cells; CPT-11 1 μg/ml): 50.0 ± 1.7%
G2-M(%) (SW948CPTL cells; CPT-11 1 μg/ml): 10.0 ± 1.4%
S(%) (SW948CPTL cells; CPT-11 1 μg/ml): 40.3 ± 2.4%
G2-M(%) (SW948CPTL cells; CPT-11 2 μg/ml): 11.2 ± 2.6%
S(%) (SW948CPTL cells; CPT-11 2 μg/ml): 43.1 ± 6.5%
G2-M(%) (SW948CPTL cells; CPT-11 5 μg/ml): 13.9 ± 2.2%
S(%) (SW948CPTL cells; CPT-11 5 μg/ml): 40.8 ± 6.4%
change of cell cycle (SW948CPTL cells; similar amount of CPT-11): did not cause any change
